SMILES strings stand for the structures. Bridge positions count the residues as written; N and C are the ends. Peptide text beside a SMILES is read from it. Some results are limits rather than exact numbers.

By IC50 is commonly meant the concentration that inhibits the measured activity by half.

The assay addresses T1, IL-23 binding to IL23R_huFC (human IL-23R) (Homo sapiens, UniProt P29460+Q9NPF7).
T1 sequence (Q9NPF7 20-189): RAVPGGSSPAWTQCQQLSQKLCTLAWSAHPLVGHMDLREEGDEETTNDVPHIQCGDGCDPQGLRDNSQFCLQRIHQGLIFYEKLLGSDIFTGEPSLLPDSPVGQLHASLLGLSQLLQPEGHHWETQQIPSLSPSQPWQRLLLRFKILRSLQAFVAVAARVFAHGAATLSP
T1 sequence (P29460 23-328): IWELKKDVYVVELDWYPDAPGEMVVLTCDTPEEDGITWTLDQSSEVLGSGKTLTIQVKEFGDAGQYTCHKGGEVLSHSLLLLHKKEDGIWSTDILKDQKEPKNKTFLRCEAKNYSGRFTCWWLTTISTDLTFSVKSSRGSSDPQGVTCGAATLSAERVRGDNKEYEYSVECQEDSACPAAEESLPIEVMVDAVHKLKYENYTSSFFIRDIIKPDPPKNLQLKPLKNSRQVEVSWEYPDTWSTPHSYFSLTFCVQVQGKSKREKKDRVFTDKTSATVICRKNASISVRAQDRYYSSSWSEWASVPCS
Kind of assay: IL23-IL23R Competitive Binding ELISA. As to conditions: inhibition of IL-23/IL-23R binding; IL-23 0.9 nM; class symbols; read-out: IC50 IL23R_huFC. On the procedure: Immulon® 4HBX plate was coated with 200 ng/well of IL23R_huFC and incubated overnight at 4° C. […] Serial dilutions of test peptides and IL-23 at a final concentration of 0.9 nM diluted in PBS were added to each well and incubated for 2 hours at room temperature. After the wells were washed, bound IL-23 was detected by incubation with 50 ng/well of goat anti-p40 polyclonal antibodies (R&D Systems #AF309) diluted in PBS for 1 hour at room temperature. The wells were again washed four times with PBST. […] The plate was finally washed as above. Signals were visualized with TMB One Component HRP Membrane Substrate, quenched with 2 M sulfuric acid and read spectrophotometrically at 450 nm.
With `CC[C@H](C)[C@@H]1NC(=O)[C@H](CCCCN)NC(=O)[C@H](C)NC(=O)[C@H](Cc2c[nH]c3ccccc23)NC(=O)[C@H](CCCNC(=N)N)NC(=O)[C@H](CCC(N)=O)NC(=O)[C@H](CCC(=O)O)NC(=O)[C@H](CCC(N)=O)NC(=O)[C@H](CC(N)=O)NC(=O)[C@H](CC(C)C)NC(=O)[C@H](CC(N)=O)NC(=O)[C@@H]2CCCN2C(=O)[C@H](CC(=O)O)NC(=O)[C@H](C(C)C)NC(=O)CNC(=O)[C@H](C)NC(=O)[C@H](CCC(=O)O)NC(=O)[C@H](CO)NC(=O)[C@H](C)NC(=O)[C@H](CCCNC(=N)N)NC(=O)[C@H](CCCNC(=N)N)NC(=O)[C@H](CC(C)C)NC(=O)[C@@H](NC(=O)[C@H](CCC(N)=O)NC(=O)[C@H](CCSC)NC(=O)[C@H](CC(N)=O)NC(=O)[C@H](Cc2ccccc2)NC(C)=O)CSSC[C@@H](C(N)=O)NC(=O)[C@H](CC(=O)O)NC(=O)[C@H](CC(=O)O)NC(=O)[C@H](CCSC)NC(=O)[C@H]([C@@H](C)CC)NC(=O)[C@H](CO)NC(=O)[C@H](CCCCN)NC1=O` [Peptide 12] (Ac-FNMQCLRRASEAGVDPNLNQEQRWAKIKSIMDDC-NH2; disulfide 5-34), the IC50 was 1000 to 10000 nM.
With `CC[C@H](C)[C@@H]1NC(=O)[C@H](CCCCN)NC(=O)[C@H](C)NC(=O)[C@H](Cc2c[nH]c3ccccc23)NC(=O)[C@H](CCCNC(=N)N)NC(=O)[C@H](CCC(N)=O)NC(=O)[C@H](CCC(=O)O)NC(=O)[C@H](CCC(N)=O)NC(=O)[C@H](CC(N)=O)NC(=O)[C@H](CC(C)C)NC(=O)[C@H](CC(N)=O)NC(=O)[C@@H]2CCCN2C(=O)[C@H](CC(=O)O)NC(=O)[C@H](C(C)C)NC(=O)CNC(=O)[C@H](C)NC(=O)[C@H](CCC(=O)O)NC(=O)[C@H](C)NC(=O)[C@H](CCSC)NC(=O)[C@H](CCCNC(=N)N)NC(=O)[C@H](CCCNC(=N)N)NC(=O)[C@H](CC(C)C)NC(=O)[C@@H](NC(=O)[C@H](CCC(N)=O)NC(=O)[C@H](CCSC)NC(=O)[C@H](CC(N)=O)NC(=O)[C@H](Cc2ccccc2)NC(C)=O)CSSC[C@@H](C(N)=O)NC(=O)[C@H](CC(=O)O)NC(=O)[C@H](CC(=O)O)NC(=O)[C@H](CCSC)NC(=O)[C@H]([C@@H](C)CC)NC(=O)[C@H](CO)NC(=O)[C@H](CCCCN)NC1=O` [Peptide 13] (Ac-FNMQCLRRMAEAGVDPNLNQEQRWAKIKSIMDDC-NH2; disulfide 5-34) the figure was less than 1000 nM.
The same measure for `CC[C@H](C)[C@@H]1NC(=O)[C@H](CCCCN)NC(=O)[C@H](C)NC(=O)[C@H](Cc2c[nH]c3ccccc23)NC(=O)[C@H](CCCNC(=N)N)NC(=O)[C@H](CCC(N)=O)NC(=O)[C@H](CCC(=O)O)NC(=O)[C@H](CCC(N)=O)NC(=O)[C@H](CC(N)=O)NC(=O)[C@H](CC(C)C)NC(=O)[C@H](CC(N)=O)NC(=O)[C@H](C)NC(=O)[C@H](CC(=O)O)NC(=O)[C@H](C(C)C)NC(=O)CNC(=O)[C@H](C)NC(=O)[C@H](CCC(=O)O)NC(=O)[C@H](CO)NC(=O)[C@H](CCSC)NC(=O)[C@H](CCCNC(=N)N)NC(=O)[C@H](CCCNC(=N)N)NC(=O)[C@H](CC(C)C)NC(=O)[C@@H](NC(=O)[C@H](CCC(N)=O)NC(=O)[C@H](CCSC)NC(=O)[C@H](CC(N)=O)NC(=O)[C@H](Cc2ccccc2)NC(C)=O)CSSC[C@@H](C(N)=O)NC(=O)[C@H](CC(=O)O)NC(=O)[C@H](CC(=O)O)NC(=O)[C@H](CCSC)NC(=O)[C@H]([C@@H](C)CC)NC(=O)[C@H](CO)NC(=O)[C@H](CCCCN)NC1=O` [Peptide 16] (Ac-FNMQCLRRMSEAGVDANLNQEQRWAKIKSIMDDC-NH2; disulfide 5-34): 1000 to 10000 nM.
The same measure for `CC[C@H](C)[C@@H]1NC(=O)[C@H](CCCCN)NC(=O)[C@H](C)NC(=O)[C@H](Cc2c[nH]c3ccccc23)NC(=O)[C@H](CCCNC(=N)N)NC(=O)[C@H](CCC(N)=O)NC(=O)[C@H](CCC(=O)O)NC(=O)[C@H](CCC(N)=O)NC(=O)[C@H](C)NC(=O)[C@H](CC(C)C)NC(=O)[C@H](CC(N)=O)NC(=O)[C@@H]2CCCN2C(=O)[C@H](CC(=O)O)NC(=O)[C@H](C(C)C)NC(=O)CNC(=O)[C@H](C)NC(=O)[C@H](CCC(=O)O)NC(=O)[C@H](CO)NC(=O)[C@H](CCSC)NC(=O)[C@H](CCCNC(=N)N)NC(=O)[C@H](CCCNC(=N)N)NC(=O)[C@H](CC(C)C)NC(=O)[C@@H](NC(=O)[C@H](CCC(N)=O)NC(=O)[C@H](CCSC)NC(=O)[C@H](CC(N)=O)NC(=O)[C@H](Cc2ccccc2)NC(C)=O)CSSC[C@@H](C(N)=O)NC(=O)[C@H](CC(=O)O)NC(=O)[C@H](CC(=O)O)NC(=O)[C@H](CCSC)NC(=O)[C@H]([C@@H](C)CC)NC(=O)[C@H](CO)NC(=O)[C@H](CCCCN)NC1=O` [Peptide 17] (Ac-FNMQCLRRMSEAGVDPNLAQEQRWAKIKSIMDDC-NH2; disulfide 5-34): 1000 to 10000 nM; for `CC[C@H](C)[C@@H]1NC(=O)[C@H](CCCCN)NC(=O)[C@H](C)NC(=O)[C@H](Cc2c[nH]c3ccccc23)NC(=O)[C@H](C)NC(=O)[C@H](CCC(N)=O)NC(=O)[C@H](CCC(=O)O)NC(=O)[C@H](CCC(N)=O)NC(=O)[C@H](CC(N)=O)NC(=O)[C@H](CC(C)C)NC(=O)[C@H](CC(N)=O)NC(=O)[C@@H]2CCCN2C(=O)[C@H](CC(=O)O)NC(=O)[C@H](C(C)C)NC(=O)CNC(=O)[C@H](C)NC(=O)[C@H](CCC(=O)O)NC(=O)[C@H](CO)NC(=O)[C@H](CCSC)NC(=O)[C@H](CCCNC(=N)N)NC(=O)[C@H](CCCNC(=N)N)NC(=O)[C@H](CC(C)C)NC(=O)[C@@H](NC(=O)[C@H](CCC(N)=O)NC(=O)[C@H](CCSC)NC(=O)[C@H](CC(N)=O)NC(=O)[C@H](Cc2ccccc2)NC(C)=O)CSSC[C@@H](C(N)=O)NC(=O)[C@H](CC(=O)O)NC(=O)[C@H](CC(=O)O)NC(=O)[C@H](CCSC)NC(=O)[C@H]([C@@H](C)CC)NC(=O)[C@H](CO)NC(=O)[C@H](CCCCN)NC1=O` [Peptide 19] (Ac-FNMQCLRRMSEAGVDPNLNQEQAWAKIKSIMDDC-NH2; disulfide 5-34): 1000 to 10000 nM.
As for `CC[C@H](C)[C@@H]1NC(=O)[C@H](CCCCN)NC(=O)[C@H](C)NC(=O)[C@H](C)NC(=O)[C@H](CCCNC(=N)N)NC(=O)[C@H](CCC(N)=O)NC(=O)[C@H](CCC(=O)O)NC(=O)[C@H](CCC(N)=O)NC(=O)[C@H](CC(N)=O)NC(=O)[C@H](CC(C)C)NC(=O)[C@H](CC(N)=O)NC(=O)[C@@H]2CCCN2C(=O)[C@H](CC(=O)O)NC(=O)[C@H](C(C)C)NC(=O)CNC(=O)[C@H](C)NC(=O)[C@H](CCC(=O)O)NC(=O)[C@H](CO)NC(=O)[C@H](CCSC)NC(=O)[C@H](CCCNC(=N)N)NC(=O)[C@H](CCCNC(=N)N)NC(=O)[C@H](CC(C)C)NC(=O)[C@@H](NC(=O)[C@H](CCC(N)=O)NC(=O)[C@H](CCSC)NC(=O)[C@H](CC(N)=O)NC(=O)[C@H](Cc2ccccc2)NC(C)=O)CSSC[C@@H](C(N)=O)NC(=O)[C@H](CC(=O)O)NC(=O)[C@H](CC(=O)O)NC(=O)[C@H](CCSC)NC(=O)[C@H]([C@@H](C)CC)NC(=O)[C@H](CO)NC(=O)[C@H](CCCCN)NC1=O` [Peptide 20] (Ac-FNMQCLRRMSEAGVDPNLNQEQRAAKIKSIMDDC-NH2; disulfide 5-34), the IC50 lay in the range of 1000 to 10000 nM.

(Values after patent publication US12655185B2, “Peptide inhibitors of interleukin-23 and their use to treat inflammatory diseases” (Protagonist Therapeutics, Inc., priority 2016, dated 2026).)
